Laboratory results: patent US20220226283A1, “COMBINATION PRODUCT CONTAINING LIMONOID COMPOUND AND DPP-4 INHIBITOR” (ZHEJIANG YANGSHENGTANG INSTITUTE OF NATURAL MEDICATION CO., …, priority 2019, published 2022)

What was measured:
Type in all cases: in vivo
[1] = tested on: db/db mice; experiment: Blood glucose in mouse type II diabetes model (limonoid compound, saxagliptin or combination); details: single administration 0.04 g/kg per day by gavage, two weeks, 1 h after the last administration, mean ± SD
Excerpt: (§1) In the present example, db/db mice (line name BKS.Cg-Dock7^m+/+Lepr^db/Nju) were used to perform hypoglycemic efficacy evaluation test of animals (blood glucose level and leptin). The limonoid compound was selected from obacunone, isoobacunoic acid and obacunone glycoside, and saxagliptin single administration group, obacunone single administration group, isoobacunoic acid single administration group, obacunone glycoside single administered group, and respective combination thereof with saxagliptin administration groups were set.
(§2) Conditions for experimental feeding: as type II diabetes model mice, 6-week-old SPF-grade db/db mice were purchased from the Nanjing Model Biology Institute, and subjected to experimental feeding after 7 days of preliminary feeding. It should be noted that the conditions for raising the mice were as follows: the temperature was 23±1° C., the humidity was 55±10%, the lights were turned on between 7 am and 7 pm (the lights were turned off at other time), and the mice were allowed to freely take in water and feed. The experimental feed was mouse growth-stable feed (GB M2118), and the daily feeding and management of the animals were under the responsibility of the animal security department, which provided the animals with sufficient diet and fresh drinking water daily.
Experimental grouping: male db/db mice (20±2 g) were selected, and 18 male mice in each group were tested. The experimental groups included normal control group (db/m, n=18), model group (db/db, n=18), obacunone group (db/db, n=18), isoobacunoic acid group (db/db, n=18), obacunone glycoside group (db/db, n=18), saxagliptin group (db/db, n=18), obacunone/saxagliptin combination group (db/db, n=18), isoobacunoic acid/saxagliptin combination group (db/db, n=18), obacunone glycoside/saxagliptin combination group (db/db, n=18). […]

[2] = tested on: db/db mice; experiment: Serum leptin (Elisa) in mouse type II diabetes model (limonoid compound, saxagliptin or combination); details: single administration 0.04 g/kg per day by gavage, two weeks, mean ± SD
Excerpt: as §1
as §2, with “daily. […]” for “daily.”

[3] = tested on: mouse pancreatic islet β-cell injury model (ICR mice modeled with streptozotocin); experiment: Blood glucose in mouse pancreatic islet β-cell injury model (limonoid compound, vildagliptin or combination); details: STZ mice, single administration 0.1 g/kg per day by gavage, two weeks, 1 h after the last administration, mean ± SD
Procedure: as §2, with “It” for “Conditions for experimental feeding: as type II diabetes model mice, 6-week-old SPF-grade db/db mice were purchased from the Nanjing Model Biology Institute, and subjected to experimental feeding after 7 days of preliminary feeding. It”
SPSS 16.0 software was used for statistical analysis. The data were expressed as mean and standard deviation. The data before and after were analyzed by t-test, and P<0.05 was considered statistically significant.

[4] = tested on: mouse pancreatic islet β-cell injury model (ICR mice modeled with streptozotocin); experiment: Blood glucose in mouse pancreatic islet β-cell injury model (limonoid compound, sitagliptin or combination); details: STZ mice, single administration 0.02 g/kg per day by gavage, two weeks, 1 h after the last administration, mean ± SD
Excerpt: In this example, a mouse pancreatic islet β-cell injury model was established by modeling ICR mice with streptozotocin (STZ) (Li Nan et al., Protective effect of pine pollen on kidney damage in diabetic nephropathy mice, Science and Technology Review, 2014, 32 (4/5): 95-99), and used to complete the evaluation of hypoglycemic effect in animals (this model could simulate pancreatic islet β-cell damage state of type I and type II diabetics). The limonoid compound was selected from the group consisting of limonin, isolimonic acid, limonin glycoside, and isolimonic acid glycoside, and sitagliptin single administration group, limonin single administration group, isolimonic acid single administration group, limonin glycoside singe administration group, isolimonic acid glycoside singe administration group, and respective combination thereof with sitagliptin administration groups were set. Conditions of experimental feeding: ICR mice (20±2 g), aged 6 weeks, purchased from Zhejiang Academy of Medical Sciences, and subjected to experimental feeding after 7 days of preliminary feeding. […] The data were expressed as mean and standard deviation. The data before and after were analyzed by t-test, and P<0.05 was considered statistically significant.

[5] = tested on: db/db mice; experiment: Blood glucose in mouse type II diabetes model (limonoid compound, linagliptin or combination); details: single administration 0.2 g/kg per day by gavage, two weeks, 1 h after the last administration, mean ± SD
Excerpt: (§3) In the present embodiment, the limonoid compound was selected from nomilin, deacetylnomilin, nomilin acid, deacetylnomilin acid glycoside, and linagliptin single administration group, nomilin single administration group, deacetylnomilin single administration group, nomilin acid single administered group, deacetylnomilin acid glycoside single administration group, and respective combination thereof with linagliptin administration groups were set.
as §2
(§4) Experimental grouping: male db/db mice (20±2 g) were selected, 18 male mice in each group were tested, and drinking bottles were sterilized weekly. […]

[6] = tested on: db/db mice; experiment: Serum insulin (Elisa) in mouse type II diabetes model (limonoid compound, linagliptin or combination); details: single administration 0.2 g/kg per day by gavage, two weeks, mean ± SD
Excerpt: as §3, §2, §4

How did the Blood glucose value [1] turn out when N#C[C@@H]1C[C@@H]2C[C@@H]2N1C(=O)[C@@H](N)C12CC3CC(CC(O)(C3)C1)C2 [Saxagliptin, saxagliptin] was run?
Its Blood glucose value is 13.9 ± 3.5 mmol/L.

And the Leptin [2]?
The Leptin was 32.52 ± 5.11 pg/mL.

How did the Blood glucose value [1] turn out when CC1(C)O[C@@H](CC(=O)O)[C@]2(C)[C@H]3CC[C@@]4(C)[C@H](c5ccoc5)OC(=O)[C@H]5O[C@]54[C@]3(C)C(=O)C[C@@H]12 [Isoobacunoic acid, isoobacunoic acid] was run?
The Blood glucose value was 14.6 ± 3.1 mmol/L.

How did the Blood glucose value [1] turn out when CC1(C)OC(=O)C=C[C@]2(C)[C@H]3CC[C@@](C)([C@@H](O[C@@H]4O[C@H](CO)[C@@H](O)[C@H](O)[C@H]4O)c4ccoc4)[C@@]4(O[C@@H]4C(=O)O)[C@]3(C)C(=O)C[C@@H]12 [Obacunone glycoside, obacunone glycoside] was run?
Its Blood glucose value is 13.6 ± 2.9 mmol/L.

How did the Blood glucose value [3] turn out when N#C[C@@H]1CCCN1C(=O)CNC12CC3CC(CC(O)(C3)C1)C2 [Vildagliptin, vildagliptin] was run?
Its Blood glucose value is 16.9 ± 2.6 mmol/L.

How did the Blood glucose value [4] turn out when N[C@@H](CC(=O)N1CCn2c(nnc2C(F)(F)F)C1)Cc1cc(F)c(F)cc1F [Sitagliptin, sitagliptin] was run?
The Blood glucose value was 21.7 ± 4.9 mmol/L.

CC#CCn1c(N2CCC[C@@H](N)C2)nc2c1c(=O)n(Cc1nc(C)c3ccccc3n1)c(=O)n2C [Linagliptin, linagliptin] was tested. Which Blood glucose value [5] did it give?
The Blood glucose value was 11.9 ± 2.1 mmol/L.

And the Insulin [6]?
The Insulin was 8.00 ± 1.94 pg/mL.
